Laboratory results taken from patent publication US20250339462A1, “CANCER TREATMENT USING ULTRA-HIGH CONCENTRATION GASEOUS NITRIC OXIDE AND A CHECKPOINT INHIBITOR” (Beyond Air, Inc., priority 2022, published 2025).

Test system: PD-L1 expression on CT26 PI negative cells
Assay: In vitro UNO exposure of CT26 cells, PD-L1 expression by flow cytometry
Format: cell-based, mouse
Procedure: Preparation of cells—Mouse colon carcinoma CT26.WT cells (ATCC number: CRL-2638) were grown to a 70-80% confluency and harvested using trypsin. Following, the cells were centrifuged at 1,200 revolutions per minute (rpm)—241 G for 8 minutes, then the pellet was re-suspended in 1 ml of cell media (RPMI—1640 supplemented with 10% FBS and 1% Pen-Strep). The cells were counted using an automated cell counter and a total of 2×10^6 cells were seeded into each […] containing 9 ml cell media. The plates were then placed for 24 hours in an incubator at 37° C., 5% CO2.
UNO treatment—Following 24 hours of incubation, cell media was removed, and the plate was placed in an acrylic box stationed within an operating chemical fume hood. Prior to the initiation of treatment, the box was exposed to UV for 1 hour to reduce the chances of contamination. The box was closed and sealed with parafilm. A PVC delivery line was placed within a designated hole on the top of the box and lowered until approximately 5 cm within the box. The flowmeter was set to 1 LPM to expose the cells for the durations and concentrations described in Table 3 (control cells were untreated).
Following treatment, 9 ml of cell media were added to each well and the plate was placed for 24 hours in an incubator at 37° C., 5% CO2.
Flow cytometry—Cell media was removed to a 50 ml centrifuge tube. […]

[N]=O [UNO, nitric oxide]
PI negative cells expressing PD-L1 (25,000-100,000 ppm for 10 s, 30 s or 1 min, depending on dosage and time of exposure): 70-90% | Mean fluorescent intensity (MFI) of PD-L1 expression (UNO dosage and time dependent manner): increased
